Consider 54 molecules from patent US8741892B2, “Compounds” (Boehringer Ingelheim International GmbH, priority 2011, dated 2014).

T1 sequence (P41594 21-1212): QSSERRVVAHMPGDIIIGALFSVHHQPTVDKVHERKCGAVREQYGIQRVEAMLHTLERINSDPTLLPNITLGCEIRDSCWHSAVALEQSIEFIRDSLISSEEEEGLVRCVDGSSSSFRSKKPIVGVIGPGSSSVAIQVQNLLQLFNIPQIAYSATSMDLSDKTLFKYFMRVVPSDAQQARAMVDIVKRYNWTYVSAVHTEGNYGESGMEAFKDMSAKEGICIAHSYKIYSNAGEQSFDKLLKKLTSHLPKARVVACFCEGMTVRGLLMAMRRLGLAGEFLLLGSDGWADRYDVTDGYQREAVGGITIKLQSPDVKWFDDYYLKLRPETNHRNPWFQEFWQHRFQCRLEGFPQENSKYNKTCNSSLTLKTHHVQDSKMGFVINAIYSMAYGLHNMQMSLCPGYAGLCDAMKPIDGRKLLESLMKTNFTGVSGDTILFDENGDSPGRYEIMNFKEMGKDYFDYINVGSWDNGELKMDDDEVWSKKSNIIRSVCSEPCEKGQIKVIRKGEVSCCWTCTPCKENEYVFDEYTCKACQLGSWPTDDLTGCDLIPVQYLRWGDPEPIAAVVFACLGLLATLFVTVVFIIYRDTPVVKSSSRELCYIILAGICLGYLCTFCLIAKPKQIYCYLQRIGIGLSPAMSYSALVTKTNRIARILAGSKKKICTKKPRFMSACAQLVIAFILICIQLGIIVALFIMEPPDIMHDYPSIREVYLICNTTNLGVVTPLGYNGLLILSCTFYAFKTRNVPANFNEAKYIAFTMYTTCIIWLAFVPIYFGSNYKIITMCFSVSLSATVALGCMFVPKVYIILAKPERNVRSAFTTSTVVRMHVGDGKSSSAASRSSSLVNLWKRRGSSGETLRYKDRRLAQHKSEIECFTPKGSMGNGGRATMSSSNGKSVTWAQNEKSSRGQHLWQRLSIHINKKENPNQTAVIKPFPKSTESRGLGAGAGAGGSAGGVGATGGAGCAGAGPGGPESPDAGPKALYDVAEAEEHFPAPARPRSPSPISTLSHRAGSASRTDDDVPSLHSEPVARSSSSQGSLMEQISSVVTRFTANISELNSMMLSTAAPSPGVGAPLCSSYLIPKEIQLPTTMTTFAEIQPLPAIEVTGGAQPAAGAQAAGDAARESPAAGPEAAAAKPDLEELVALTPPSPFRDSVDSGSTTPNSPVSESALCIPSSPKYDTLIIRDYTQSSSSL

The test addresses T1, human recombinant mGluR5 (Homo sapiens, UniProt P41594).
T1 construct: expressed in transfected cells; host or cells: HEK 293
The experiment in a line: positive modulation of mGluR5, calcium based FLIPR assay. Particulars: HEK 293 cell line expressing human recombinant mGluR5; EC50 of the modulation from peak Ca fluorescence signal after glutamate at approx. 5% basal stimulation. As for the experimental part: The positive modulation of mGluR5 is measured in a HEK 293 cell line expressing human recombinant mGluR5 and is detected with calcium based FLIPR assay. The cells are cultured with DMEM supplemented with 10% FCS, 2 μg/mL tetracycline, 100 μg/mL hygromycin and 500 μg/mL geneticin. The cell culture media is exchanged for tetracycline-free cell culture media 3-7 days before the assay. One day before the assay the cell culture medium is exchanged to DMEM without glutamine and phenol red and supplemented with 10% FCS, 100 μg/mL hygromycin and 500 μg/mL geneticin. On the assay day, the medium of the subconfluent cultures is removed and the cells are detached by addition of 2.5 ml EDTA (0.02%) per 175 cm2 culture flask for 1 minute. The cells are resuspend in Ringer solution (140 mM NaCl, 5 mM KCl, 2.5 mM CaCl2, 1.5 mM MgCl2, 5 mM Glucose, 10 mM Hepes; adjusted to pH 7.4 with NaOH), pooled and Ringer solution added to adjust the volume to 50 mL. The cell suspension is centrifuged for […] at 1500 U/min (425 g). The supernatant is removed and the cells washed a second time with 50 ml fresh Ringer solution and centrifuged again as before. The supernatant is again removed and the pellet resuspended in Ringer solution to 1,000,000 cells/ml (1×10^6 cells/mL). The cells are plated onto BD BioCoat Poly-D-Lysine 384 well plates (20.000 cells/well; 20 μl/well). The lid covered plates are then incubated until use at 37° C./10% CO2. For dye loading, 20 μl of Calcium-4 assay kit solution (prepared according to the manufacturer's description in Ringer solution) are added to the cells and the plates are incubated for […] 37° C. and then […] at room temperature.
Controls, Compound Dilution and Assay Execution:
Each assay plate contained wells with “high” and “low” controls:
Low controls 1% DMSO/ringer solution+basal glutamate activation (defined as 100% CTL).
High controls 10 μM CDPPB+basal glutamate activation (defined as 200% CTL).
Test compounds are dissolved and diluted in DMSO to 100-fold the desired concentrations. In a second step, the compounds are diluted in Ringer solution such that the compounds are 4-fold more concentrated than the desired final assay concentration. The final DMSO concentration was 1%.
20 μl of each compound solution are then transferred to the assay plate and the Ca2+ kinetic is measured to determine any intrinsic compound activity. After 5 mM incubation in the FLIPR device, the second stimulation with 20 μl of glutamate in Ringer solution (glutamate concentration adjusted to approximately 5% basal stimulation of the maximal possible glutamate effect) is added and the kinetic Ca2+ response of the wells was measured for the modulation effect.
The peak height of the Ca release related fluorescence signal (9-66) is used for the EC50. The EC50 of the modulation is calculated over a nonlinear regression with GraphPad Prism (Table 1).
Consider `COCc1cc(-c2ccc(F)c(C)c2)nn1CC(=O)N1Cc2nc(C)sc2C1` [Example 7.01.058], for which the EC50 (commonly the midpoint of the concentration-response curve) was determined as 279 nM.
In the case of `Cc1nc2c(s1)CCN(C(=O)Cn1nc(-c3ccc(F)c(C)c3)cc1C)CC2` [Example 7.01.059], the EC50 is 32 nM.
In the case of `Cc1cc(-c2cc(C)n(CC(=O)N3CCc4nc(N)sc4CC3)n2)ccc1F` [Example 7.01.060] it was 101 nM.
As for `Cc1nc2c(o1)CN(C(=O)Cn1nc(-c3ccc(F)c(C)c3)cc1C)CC2` [Example 7.01.061], the EC50 is 163 nM.
In the case of `Cc1nc2c(s1)CN(C(=O)Cn1nc(-c3ccc(F)c(C)c3)cc1C)C2` [Example 7.01.062] it was 242 nM; in that of `Cc1nnc(N2CCN(C(=O)Cn3nc(-c4ccc(F)c(C)c4)cc3C)CC2)o1` [Example 7.01.063], 334 nM; in that of `Cc1cc(-c2cc(-c3ccccc3)nn2CC(=O)N2CCc3nc(C)sc3CC2)ccn1` [Example 7.01.064], 1230 nM.
In the case of `CCc1cc(-c2ccc(F)c(C)c2)nn1CC(=O)N1CCc2ccc(OC)cc2CC1` [Example 7.01.065] it was 173 nM; in that of `CCc1cc(-c2ccc(F)c(C)c2)nn1CC(=O)N1CCc2cc(-c3ccccc3)nnc2CC1` [Example 7.01.066], 153 nM.
As for `CCc1cc(-c2ccc(F)c(C)c2)nn1CC(=O)N1CCc2nc(C)sc2C1` [Example 7.01.067], the figure is 122 nM; as for `CCc1cc(-c2ccc(F)c(C)c2)nn1CC(=O)N1CCc2nc(N)sc2C1` [Example 7.01.068], 236 nM.
Turning to `CCc1cc(-c2ccc(F)c(C)c2)nn1CC(=O)N1CCc2nc(NC(C)=O)sc2CC1` [Example 7.01.069], the EC50 was 380 nM.
In the case of `CCc1cc(-c2ccc(F)c(C)c2)nn1CC(=O)N1CCc2ccc(C(=O)OC)cc2CC1` [Example 7.01.070] it was 128 nM; in that of `CCc1cc(-c2ccc(F)c(C)c2)nn1CC(=O)N1CCc2ccsc2CC1` [Example 7.01.071], 233 nM.
Regarding `CCc1cc(-c2ccc(F)c(C)c2)nn1CC(=O)N1CCc2ccc(N)cc2CC1` [Example 7.01.072], the EC50 is 245 nM.
As for `CCc1cc(-c2ccc(F)c(C)c2)nn1CC(=O)N1CCc2ncsc2CC1` [Example 7.01.073], the EC50 was 84 nM.
In the case of `CCc1cc(-c2ccc(F)c(C)c2)nn1CC(=O)N1CCc2nc(C)sc2CC1C` (stereo not drawn) [Example 7.01.074], the EC50 worked out at 91 nM.
As for `CCc1cc(-c2ccc(F)c(C)c2)nn1CC(=O)N1CCc2oc(C)nc2C1` [Example 7.01.075], the EC50 came out at 87 nM.
In the case of `CCc1cc(-c2ccc(F)c(C)c2)nn1CC(=O)N1CCc2ccsc2C1` [Example 7.01.076] it was 412 nM.
As to `CCc1cc(-c2ccc(F)c(C)c2)nn1CC(=O)N1CCc2nc(C)oc2C1` [Example 7.01.077], the EC50 worked out at 110 nM.
As to `Cc1cc(-c2cc(-c3ccccc3)n(CC(=O)N3CCc4ncccc4C3)n2)ccc1F` [Example 7.01.078], the EC50 was 78 nM.
As for `COc1cc2c(cc1OC)CCN(C(=O)Cn1nc(-c3ccc(F)c(C)c3)cc1-c1ccccc1)CC2` [Example 7.01.079], the figure is 447 nM; as for `Cc1cc(-c2cc(-c3ccccc3)n(CC(=O)N3CCc4cnc(Nc5ccccc5)nc4CC3)n2)ccc1F` [Example 7.01.080], 277 nM.
`Cc1cc(-c2cc(-c3ccccc3)n(CC(=O)N3CCc4cc(=O)n(C)nc4CC3)n2)ccc1F` [Example 7.01.081]: the EC50 was 30 nM.
On to `Cc1cc(-c2cc(-c3ccccc3)n(CC(=O)N3CCc4cc(-c5ccccc5)nnc4CC3)n2)ccc1F` [Example 7.01.082], for which the half-maximal effective concentration (EC50) worked out at 66 nM.
As for `COc1ccc2c(c1)CCN(C(=O)Cn1nc(-c3ccc(F)c(C)c3)cc1-c1ccccc1)CC2` [Example 7.01.083], the figure is 86 nM.
As for `Cc1cc(-c2cc(-c3ccccc3)n(CC(=O)N3CCc4nc5ccccc5c(C)c4CC3)n2)ccc1F` [Example 7.01.084], the figure is 34 nM; as for `Cc1nc2c(o1)CCN(C(=O)Cn1nc(-c3ccc(F)c(C)c3)cc1-c1ccccc1)C2` [Example 7.01.085], 26 nM.
With `Cc1cc(-c2cc(-c3ccccc3)n(CC(=O)N3CCc4ncc(C)n4CC3)n2)ccc1F` [Example 7.01.086], the half-maximal effective concentration (EC50) turned out to be 274 nM.
As for `Cc1cc(-c2cc(-c3ccccc3)n(CC(=O)N3CCc4ccccc4C3)n2)ccc1F` [Example 7.01.087], the figure is 125 nM; as for `COC(=O)c1ccc2c(c1)CCN(C(=O)Cn1nc(-c3ccc(F)c(C)c3)cc1-c1ccccc1)CC2` [Example 7.01.088], 29 nM; as for `Cc1nc2c(s1)CN(C(=O)Cn1nc(-c3ccc(F)c(C)c3)cc1-c1ccccc1)CC2` [Example 7.01.089], 22 nM.
In the case of `Cc1cc(-c2cc(-c3ccccc3)n(CC(=O)N3CCc4ccccc4CC3)n2)ccc1F` [Example 7.01.090] it was 240 nM.
On to `COc1ccc2c(n1)CCN(C(=O)Cn1nc(-c3ccc(F)c(C)c3)cc1-c1ccccc1)CC2` [Example 7.01.091], for which the EC50 is 37 nM.
In the case of `Cc1cc(-c2cc(-c3ccccc3)n(CC(=O)N3CCc4ncnc(-c5ccccc5)c4CC3)n2)ccc1F` [Example 7.01.092], the EC50 was 33 nM.
For `Cc1cc(-c2cc(-c3ccccc3)n(CC(=O)N3CCc4nc(N)sc4C3)n2)ccc1F` [Example 7.01.093], the EC50 came to 35 nM.
As for `Cc1cc(-c2cc(-c3ccccc3)n(CC(=O)N3CCc4nc(N)oc4CC3)n2)ccc1F` [Example 7.01.094], the figure is 90 nM; as for `Cc1cc(-c2cc(-c3ccccc3)n(CC(=O)N3CCc4ccc(N)cc4CC3)n2)ccc1F` [Example 7.01.095], 53 nM; as for `CC(=O)Nc1ccc2c(c1)CCN(C(=O)Cn1nc(-c3ccc(F)c(C)c3)cc1-c1ccccc1)CC2` [Example 7.01.097], 109 nM.
Take `CCc1cc(-c2ccc(F)c(C)c2)nn1CC(=O)N1CCc2cn[nH]c2CC1` [Example 7.01.098]: the EC50 was found to be 477 nM.
As for `Nc1nc2c(s1)CCN(C(=O)Cn1nc(-c3ccc(F)cc3)cc1-c1ccc(F)cc1)CC2` [Example 7.02.001, 1-(2-Amino-4,5,7,8-tetrahydro-thiazolo (4,5-d)azepin-6-yl)-2-[3,5-bis-(4-fluoro-phenyl)-pyrazol-1-yl]-ethanone], the figure is 55 nM; as for `O=C(Cn1nc(-c2ccccc2)cc1-c1ccccc1)N1CCc2nc(-c3ccccc3)nc(O)c2C1` [Example 7.02.002], 1170 nM.
In the case of `O=C(Cn1nc(-c2ccccc2)cc1-c1ccccc1)N1CCN(c2ccccc2)C(=O)C1` [Example 7.02.003] it was 925 nM.
In the case of `O=C(Cn1nc(-c2ccccc2)cc1-c1ccccc1)N1CCc2ncsc2CC1` [Example 7.02.004] it was 689 nM; in that of `O=C(Cn1nc(-c2ccccc2)cc1-c1ccccc1)N1CCc2nc(-c3ccccc3)ncc2C1` [Example 7.02.005], 1260 nM.
As for `COc1cc2c(cc1OC)CN(C(=O)Cn1nc(-c3ccccc3)cc1-c1ccccc1)CC2` [Example 7.02.006], the EC50 worked out at 1950 nM.
`O=C(Cn1nc(-c2ccccc2)cc1-c1ccccc1)N1CCC(c2noc3ccccc23)CC1` [Example 7.02.007]: the EC50 is 600 nM.
In the case of `Cc1nc(C2CCN(C(=O)Cn3nc(-c4ccccc4)cc3-c3ccccc3)CC2)oc1C` [Example 7.02.008] it was 997 nM; in that of `O=C(Cn1nc(-c2ccccc2)cc1-c1ccccc1)N1CCN(c2nc3ccccc3o2)CC1` [Example 7.02.009], 220 nM; in that of `Cc1nc2c(s1)CCN(C(=O)Cn1nc(-c3ccc(F)cc3)cc1-c1ccc(F)cc1)CC2` [Example 7.02.010], 13 nM.
As for `Cc1nc2c(s1)CN(C(=O)Cn1nc(-c3ccc(F)cc3)cc1-c1ccc(F)cc1)C2` [Example 7.02.011], the figure is 37 nM; as for `COc1cccc(N2CCN(C(=O)Cn3nc(-c4ccc(F)cc4)cc3-c3ccc(F)cc3)CC2=O)c1` [Example 7.02.012], 47 nM.
For the molecule `Cc1cc(-c2cc(-c3ccccc3)n(CC(=O)N3CCC(c4ccccn4)CC3)n2)ccc1F` [Example 7.02.013], the EC50 was 92 nM.
Take `Cc1cc(-c2cc(-c3ccccc3)n(CC(=O)N3CC=C(c4ncccn4)CC3)n2)ccc1F` [Example 7.02.014]: the concentration for a half-maximal effect (EC50) is 21 nM.
